Calls of active or inactive are those of the source. No cut-off for these calls is given here.
What was measured:
Assay type in all cases: functional
NCI-H522 = assay: Antiproliferative activity against human NCI-H522 cells assessed as inhibition of cell growth at 10 uM measured after 24 to 72 hrs by SRB method relative to control; details: time 24-72 hrs
NCI-H322M = assay: Antiproliferative activity against human NCI-H322M cells assessed as inhibition of cell growth at 10 uM measured after 24 to 72 hrs by SRB method relative to control; details: time 24-72 hrs
A549 = assay: cells; details: Homo sapiens, time 24-72 hrs
Description: Antiproliferative activity against human A549 cells assessed as inhibition of cell growth at 10 uM measured after 24 to 72 hrs by SRB method relative to control

HOP-92 = assay: cells; details: Homo sapiens, time 24-72 hrs
Description: Antiproliferative activity against human HOP-92 cells assessed as inhibition of cell growth at 10 uM measured after 24 to 72 hrs by SRB method relative to control

NCI-H226 = assay: cells; details: Homo sapiens, time 24-72 hrs
Description: Antiproliferative activity against human NCI-H226 cells assessed as inhibition of cell growth at 10 uM measured after 24 to 72 hrs by SRB method relative to control

NCI-H460 = assay: cells; details: Homo sapiens, time 24-72 hrs
Description: Antiproliferative activity against human NCI-H460 cells assessed as inhibition of cell growth at 10 uM measured after 24 to 72 hrs by SRB method relative to control

NCI-H23 = assay: cells; details: Homo sapiens, time 24-72 hrs
Description: Antiproliferative activity against human NCI-H23 cells assessed as inhibition of cell growth at 10 uM measured after 24 to 72 hrs by SRB method relative to control

EKVX = assay: cells; details: Homo sapiens, time 24-72 hrs
Description: Antiproliferative activity against human EKVX cells assessed as inhibition of cell growth at 10 uM measured after 24 to 72 hrs by SRB method relative to control

HOP-62 = assay: Antiproliferative activity against human HOP-62 cells assessed as inhibition of cell growth at 10 uM measured after 24 to 72 hrs by SRB method relative to control; details: time 24-72 hrs

| SMILES | inhibition at 10 µM (NCI-H522) [%] | inhibition at 10 µM (NCI-H322M) [%] | inhibition at 10 µM (A549) [%] | inhibition at 10 µM (HOP-92) [%] | inhibition at 10 µM (NCI-H226) [%] | inhibition at 10 µM (NCI-H460) [%] | inhibition at 10 µM (NCI-H23) [%] | inhibition at 10 µM (EKVX) [%] | inhibition at 10 µM (HOP-62) [%] | inhibition (NCI-H322M) | inhibition (HOP-62) |
| --- | --- | --- | --- | --- | --- | --- | --- | --- | --- | --- | --- |
| COc1cc2c(c(OC)c1OC)CCC(c1cccc(NC(=O)c3ccc(Br)cc3)c1)O2 (centres undefined) | 25.4 | 24.9 | 32.6 | 41.5 | 27.6 | 6.47 | 19.9 | 22.8 | 12.8 | – | – |
| COc1cc2c(c(OC)c1OC)CCC(c1cccc(C(=O)Nc3ccc(Br)cc3)c1)O2 (centres undefined) | 51.1 | 50 | 35.8 | 83 | 37.3 | 16 | 24.2 | 39.5 | 18 | – | – |
| COc1cc2c(c(OC)c1OC)CCC(c1cccc(C(=O)Nc3ccccc3Br)c1)O2 (centres undefined) | 19.9 | 5.11 | 18.9 | 33.7 | 7.74 | – | 2.79 | 9.92 | 7.73 | – | – |
| COc1cc2c(c(OC)c1OC)CCC(c1cccc(NC(=O)c3cccc(Cl)c3)c1)O2 (centres undefined) | 37.9 | 9.74 | 15 | 16.9 | 20.2 | 3.06 | 7.27 | 14.1 | 7.17 | – | – |
| COc1cc2c(c(OC)c1OC)CCC(c1cccc(NC(=O)c3ccc(C#N)cc3)c1)O2 (centres undefined) | 42.8 | 11.1 | 29.4 | 10.6 | 28.8 | 5.83 | 28.1 | 29 | 21.8 | – | – |
| COc1cc2c(c(OC)c1OC)CCC(c1cccc(NC(=O)c3ccc([N+](=O)[O-])cc3)c1)O2 (centres undefined) | 32.5 | 11 | 32.2 | 15.7 | 50.7 | 29 | 34.2 | 35.4 | 7.28 | – | – |
| COc1cc2c(c(OC)c1OC)CCC(c1cccc(C(=O)Nc3cccc(Br)c3)c1)O2 (centres undefined) | 51.2 | 49.1 | 35.5 | 93.8 | 30.1 | 29.5 | 22.5 | 49.6 | 3.19 | – | – |
| COc1cc2c(c(OC)c1OC)CCC(c1cccc(NC(=O)c3ccccc3)c1)O2 (centres undefined) | 24.3 | 5.18 | 19.5 | 5.1 | 19.8 | – | 15.6 | – | 1.13 | – | – |
| COc1cc2c(c(OC)c1OC)CCC(c1cccc(NC(=O)c3cccc(Br)c3)c1)O2 (centres undefined) | 19 | 1.51 | 18.8 | 6.02 | 6.31 | – | 4.86 | 15.4 | 0.21 | – | – |
| COc1cc2c(c(OC)c1OC)CCC(c1cccc(NC(=O)c3ccccc3Br)c1)O2 (centres undefined) | 20.7 | 6.37 | 13.8 | 8.39 | 14.6 | – | 5.1 | 7.82 | 2.7 | – | – |
| COc1cc2c(c(OC)c1OC)CCC(c1cccc(NC(=O)C(C)C)c1)O2 (centres undefined) | 9.48 | – | 10.7 | – | 3.99 | – | 2.65 | – | – | inactive | inactive |
| COc1cc2c(c(OC)c1OC)CCC(c1cccc(C(=O)NC(C)C)c1)O2 (centres undefined) | 17 | 4.16 | 1.14 | 19.7 | 16.4 | 2.47 | 6.78 | – | 1.41 | – | – |

Source: ChEMBL document CHEMBL5390198, “Scaffold hopping of N-benzyl-3,4,5-trimethoxyaniline: 5,6,7-Trimethoxyflavan derivatives as novel potential anticancer agents modulating hippo signaling pathway” (2023)
